Experiments:
Format in all cases: in vivo
[1] = system: Digitaria sanguinalis (DIGSA); assay: Herbicidal pre-emergence action; settings: graded after ca. 3 weeks
Method in brief: (§1)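 Seeds sown in sandy loam and covered with soil; WP- or EC-formulated compounds applied to the covering soil surface as aqueous suspension/emulsion with 0.5% additive at 600 l water/ha, rates of 1280 g/ha or lower. Greenhouse growth; visual damage scored after ca. 3 weeks versus untreated controls (0–100%).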

Setaria viridis (SETVI) [2] = assay: Herbicidal pre-emergence action; settings: graded after ca. 3 weeks
Method in brief: as §1

[3] = system: Alopecurus myosuroides (ALOMY); assay: Herbicidal pre-emergence action; settings: graded after ca. 3 weeks
Method in brief: as §1

Lolium rigidum (LOLRI) [4] = assay: Herbicidal pre-emergence action; settings: 320 g/ha, graded after ca. 3 weeks
Method in brief: as §1

Poa annua (POAAN) [5] = assay: Herbicidal pre-emergence action; settings: graded after ca. 3 weeks
Method in brief: as §1

[6] = system: Echinochloa crus-galli (ECHCG); assay: Herbicidal pre-emergence action; settings: 1280 g/ha, graded after ca. 3 weeks
Method in brief: as §1

[7] = system: Digitaria sanguinalis (DIGSA); assay: Herbicidal post-emergence action; settings: assessed after ca. 3 weeks
Method in brief: (§2)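 Seeds were sown in sandy loam and grown under controlled greenhouse conditions. At the single-leaf stage (2 to 3 weeks), green parts were sprayed with the aqueous formulated compound (0.5% additive, 600 l water/ha, 1280 or 320 g/ha). About 3 weeks later, effect was rated visually in percent against untreated plants.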

Poa annua (POAAN) [8] = assay: Herbicidal post-emergence action; settings: assessed after ca. 3 weeks
Method in brief: as §2

[9] = system: Echinochloa crus-galli (ECHCG); assay: Herbicidal post-emergence action; settings: 1280 g/ha, assessed after ca. 3 weeks
Method in brief: as §2

Brassica napus (BRSNW) [10] = assay: Post-emergence effects on crop plants; settings: crop plant Brassica napus (BRSNW)
Text: (§3) Seeds of mono- and dicotyledonous weed plants and crop plants were sown, in plastic or organic planting pots, in sandy loam, covered with soil and grown in a greenhouse under controlled growth conditions. 2 to 3 weeks after sowing, the test plants were sprayed in the single-leaf stage. The compounds according to the invention, formulated in form of wettable powders (WP) or as emulsifiable concentrates (EC), were sprayed onto the green plant parts as aqueous suspension or emulsion, with the addition of 0.5% of an additive, at an application rate of 600 1 of water/ha (converted). The test plants were placed in the greenhouse for ca. 3 weeks under optimum growth conditions, and then the effect of the preparations was assessed visually in comparison with untreated controls (herbicidal effect in percent (%): 100% effect=plants have died off, 0% effect=as control plants).
(§4) Tables D1 to D3 below show the effects of selected compounds of the general formula (I) according to table 1 on various crop plants and an application rate corresponding to 320 g/ha or below obtained by the experimental procedure mentioned above in biology section B.

[11] = system: Lolium multiflorum (LOLMU); assay: Herbicidal pre-emergence action; settings: 1280 g/ha, graded after ca. 3 weeks
Method in brief: as §1

[12] = system: Polygonum convolvulus (POLCO); assay: Herbicidal pre-emergence action; settings: graded after ca. 3 weeks
Method in brief: as §1

Avena fatua (AVEFA) [13] = assay: Herbicidal pre-emergence action; settings: graded after ca. 3 weeks
Method in brief: as §1

[14] = system: Cyperus esculentus (CYPES); assay: Herbicidal post-emergence action; settings: 1280 g/ha, assessed after ca. 3 weeks
Method in brief: as §2

[15] = system: Lolium multiflorum (LOLMU); assay: Herbicidal post-emergence action; settings: 1280 g/ha, assessed after ca. 3 weeks
Method in brief: as §2

[16] = system: Polygonum convolvulus (POLCO); assay: Herbicidal post-emergence action; settings: 1280 g/ha, assessed after ca. 3 weeks
Method in brief: as §2

Setaria viridis (SETVI) [17] = assay: Herbicidal post-emergence action; settings: 1280 g/ha, assessed after ca. 3 weeks
Method in brief: as §2

Avena fatua (AVEFA) [18] = assay: Herbicidal post-emergence action; settings: 1280 g/ha, assessed after ca. 3 weeks
Method in brief: as §2

[19] = system: Alopecurus myosuroides (ALOMY); assay: Herbicidal post-emergence action; settings: 1280 g/ha, assessed after ca. 3 weeks
Method in brief: as §2

Viola tricolor (VIOTR) = assay: Herbicidal pre-emergence action; settings: 320 g/ha, graded after ca. 3 weeks
Method in brief: as §1

Brassica napus (BRSNW) [20] = assay: Pre-emergence effects on crop plants; settings: 320 g/ha, crop plant
Text: (§5) Seeds of mono- and dicotyledonous weed plants and crop plants were sown, in plastic or organic planting pots, in sandy loam and covered with soil. The compounds according to the invention, formulated in the form of wettable powders (WP) or as emulsifiable concentrates (EC), were applied to the surface of the covering soil as aqueous suspension or emulsion, with the addition of 0.5% of an additive, at an application rate of 600 1 of water/ha (converted).
(§6) Following treatment, the pots were placed in a greenhouse and kept under optimum growth conditions for the test plants. The visual grading of the damage to the test plants was carried out after ca. 3 weeks in comparison to untreated controls (herbicidal effect in percent (%): 100% effect=plants have died off, 0% effect=as control plants).
(§7) Tables C1 to C3 below show the effects of selected compounds of the general formula (I) according to table 1 on various crop plants and an application rate corresponding to 320 g/ha or below obtained by the experimental procedure mentioned above in biology section A.

Glycine max (GLXMA) [21] = assay: Pre-emergence effects on crop plants; settings: 320 g/ha, crop plant
Text: as §5, §6, §7

Zea Mays (ZEAMX) [22] = assay: Pre-emergence effects on crop plants; settings: crop plant
Text: as §5, §6, §7

Lolium rigidum (LOLRI) [23] = assay: Herbicidal post-emergence action; settings: 320 g/ha, assessed after ca. 3 weeks
Method in brief: as §2

Glycine max (GLXMA) [24] = assay: Post-emergence effects on crop plants; settings: 320 g/ha, crop plant
Text: as §3, §4

Zea Mays (ZEAMX) [25] = assay: Post-emergence effects on crop plants; settings: crop plant
Text: as §3, §4

[26] = system: Amaranthus retroflexus (AMARE); assay: Herbicidal post-emergence action; settings: 1280 g/ha, assessed after ca. 3 weeks
Method in brief: as §2

[27] = system: Amaranthus retroflexus (AMARE); assay: Herbicidal pre-emergence action; settings: 1280 g/ha, graded after ca. 3 weeks
Method in brief: as §1

[28] = system: Cyperus esculentus (CYPES); assay: Herbicidal pre-emergence action; settings: 1280 g/ha, graded after ca. 3 weeks
Method in brief: as §1

Veronica persica (VERPE) = assay: Herbicidal pre-emergence action; settings: 1280 g/ha, graded after ca. 3 weeks
Method in brief: as §1

Stellaria media (STEME) = assay: Herbicidal post-emergence action; settings: 1280 g/ha, assessed after ca. 3 weeks
Method in brief: as §2

[29] = system: Pharbitis purpurea (PHBPU); assay: Herbicidal pre-emergence action; settings: 1280 g/ha, graded after ca. 3 weeks
Method in brief: as §1

Structure (SMILES) | Pre-emergence activity against DIGSA ([1]; 320 g/ha) | Pre-emergence activity against SETVI (Setaria viridis (SETVI) [2]; 1280 g/ha) | Pre-emergence activity against ALOMY ([3]; 1280 g/ha) | Pre-emergence activity against LOLRI (Lolium rigidum (LOLRI) [4]) | Pre-emergence activity against ECHCG [6] | Post-emergence activity against ECHCG [9] | Pre-emergence activity against LOLMU [11] | Pre-emergence activity against POLCO ([12]; 1280 g/ha) | Pre-emergence activity against AVEFA (Avena fatua (AVEFA) [13]; 1280 g/ha) | Post-emergence activity against LOLMU [15] | Post-emergence activity against SETVI (Setaria viridis (SETVI) [17]) | Post-emergence activity against AVEFA (Avena fatua (AVEFA) [18]) | Post-emergence activity against ALOMY [19] | Post-emergence activity against DIGSA ([7]; 320 g/ha) | Post-emergence activity against LOLRI (Lolium rigidum (LOLRI) [23]) | also measured
O=C(O)CC1CCC(=O)N1Cc1ccc(F)c(F)c1F (centres unmarked) [Example I-192, [5-Oxo-1-(2,3,4-trifluorobenzyl)pyrrolidin-2-yl]acetic acid] | 90% | 90% | 90% | 90% | 80% | 90% |  |  |  |  |  |  |  |  |  | Pre-emergence activity against DIGSA ([1]; 1280 g/ha): 90%; Pre-emergence activity against POAAN (Poa annua (POAAN) [5]; 320 g/ha): 100%; Pre-emergence activity against POAAN (Poa annua (POAAN) [5]; 1280 g/ha): 100%; Post-emergence activity against DIGSA ([7]; 1280 g/ha): 90%; Post-emergence activity against POAAN (Poa annua (POAAN) [8]; 320 g/ha): 100%; Post-emergence activity against POAAN (Poa annua (POAAN) [8]; 1280 g/ha): 100%; post-emergence activity against BRSNW (Brassica napus (BRSNW) [10]; application rate 320 g/ha): 0%
C=CCOC(=O)CC1CCC(=O)N1Cc1cccc(F)c1F (racemic) [Example I-021] |  | 80% | 90% |  | 80% | 90% | 90% | 80% | 100% | 90% | 90% | 80% | 80% |  |  | Post-emergence activity against CYPES [14]: 80%; Post-emergence activity against POLCO [16]: 80%
O=C(O)CC1CCC(=O)N1Cc1cccc(F)c1F (single isomer, unassigned) [Example I-014] | 100% |  | 100% | 90% | 80% | 90% | 90% |  | 100% | 80% | 90% | 80% | 80% | 80% | 80% | Pre-emergence activity against POLCO ([12]; 320 g/ha): 90%; Pre-emergence activity against SETVI (Setaria viridis (SETVI) [2]; 320 g/ha): 90%; Pre-emergence activity against VIOTR (Viola tricolor (VIOTR)): 90%; pre-emergence activity against BRSNW (crop damage) (Brassica napus (BRSNW) [20]): 0%; pre-emergence activity against GLXMA (crop damage) (Glycine max (GLXMA) [21]): 0%; pre-emergence activity against ZEAMX (crop damage) (Zea Mays (ZEAMX) [22]; 80 g/ha): 0%; Post-emergence activity against CYPES [14]: 80%; post-emergence activity against BRSNW (Brassica napus (BRSNW) [10]; application rate 80 g/ha): 0%; post-emergence activity against GLXMA (crop damage) (Glycine max (GLXMA) [24]): 0%; post-emergence activity against ZEAMX (crop damage) (Zea Mays (ZEAMX) [25]; 80 g/ha): 0%
O=C(CC1CCC(=O)N1Cc1cccc(F)c1F)Nc1ncns1 (centres unmarked) [Example I-193, 2-[1-[(2,3-difluorophenyl)methyl]-5-oxo-pyrrolidin-2-yl]-N-(1,2,4-thiadiazol-5-yl)acetamide] |  |  |  |  |  |  |  |  |  |  |  |  |  |  |  | Pre-emergence activity against POAAN (Poa annua (POAAN) [5]; 1280 g/ha): 90%; Post-emergence activity against POAAN (Poa annua (POAAN) [8]; 1280 g/ha): 90%
O=C(CC1CCC(=O)N1Cc1cccc(F)c1F)NC1CCCc2ccccc21 (mixture of isomers) [Example I-066] |  |  |  |  |  |  |  |  |  |  |  |  |  |  |  | Post-emergence activity against AMARE [26]: 100%
COC(=O)C1(NC(=O)CC2CCC(=O)N2Cc2cccc(F)c2F)CC1 (racemic) [Example I-048] |  |  | 80% |  |  |  | 80% |  | 90% |  |  |  |  |  |  | Pre-emergence activity against AMARE [27]: 90%
O=C(O)CC1CCC(=O)N1Cc1cccc(Cl)c1F (racemic) [Example I-001, 2-[1-[(3-chloro-2-fluorophenyl)methyl]-5-oxo-pyrrolidin-2-yl]acetic acid] | 100% |  | 90% | 90% | 80% | 90% | 90% |  | 100% | 100% | 80% | 90% | 90% | 90% | 80% | Pre-emergence activity against CYPES [28]: 80%; Pre-emergence activity against POLCO ([12]; 320 g/ha): 80%; Pre-emergence activity against VERPE (Veronica persica (VERPE)): 90%; Pre-emergence activity against SETVI (Setaria viridis (SETVI) [2]; 320 g/ha): 100%; Pre-emergence activity against AVEFA (Avena fatua (AVEFA) [13]; 320 g/ha): 100%; Pre-emergence activity against ALOMY ([3]; 320 g/ha): 80%; post-emergence activity against BRSNW (Brassica napus (BRSNW) [10]; application rate 320 g/ha): 0%
COCCOC(=O)CC1CCC(=O)N1Cc1cccc(F)c1F (racemic) [Example I-015] | 100% | 90% | 90% | 80% | 90% | 100% | 80% | 80% | 100% | 80% | 90% | 90% |  | 80% | 80% | Pre-emergence activity against CYPES [28]: 80%; Pre-emergence activity against VIOTR (Viola tricolor (VIOTR)): 90%; pre-emergence activity against BRSNW (crop damage) (Brassica napus (BRSNW) [20]): 20%; pre-emergence activity against GLXMA (crop damage) (Glycine max (GLXMA) [21]): 0%; pre-emergence activity against ZEAMX (crop damage) (Zea Mays (ZEAMX) [22]; 320 g/ha): 0%; Post-emergence activity against POLCO [16]: 80%; Post-emergence activity against STEME (Stellaria media (STEME)): 90%; post-emergence activity against BRSNW (Brassica napus (BRSNW) [10]; application rate 80 g/ha): 0%; post-emergence activity against GLXMA (crop damage) (Glycine max (GLXMA) [24]): 0%; post-emergence activity against ZEAMX (crop damage) (Zea Mays (ZEAMX) [25]; 320 g/ha): 0%
O=C(CC1CCC(=O)N1Cc1cccc(F)c1F)NCC(F)(F)F (racemic) [Example I-090] |  |  |  |  |  |  |  |  |  |  |  |  |  |  |  | Pre-emergence activity against PHBPU [29]: 100%
CC1(C)CCC(=O)C(C(=O)CC2CCC(=O)N2Cc2cccc(F)c2F)C1=O (racemic) [Example I-178] |  |  | 90% |  | 90% | 90% |  | 90% | 90% |  |  | 80% |  |  |  | Pre-emergence activity against PHBPU [29]: 90%; Post-emergence activity against AMARE [26]: 100%; Post-emergence activity against STEME (Stellaria media (STEME)): 80%
